Experimental findings from patent US11000033B2, “Ketone or oxime compound, and herbicide” (NISSAN CHEMICAL CORPORATION, priority 2014, dated 2021) are described below.

What all share (format): in vivo
For one series, the system named is soybean. The experiment in a line: Test Example 4: effect on crop by soil treatment (symbol d). To be noted: application herbicide amount 320 g/ha. In outline: (§1)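 The test used sterilized diluvial soil. Seed was set down in spots and overlaid with about 1.5 cm of soil before growth in a greenhouse kept at 25° C. to 30° C.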
The test system of series [1] is Echinochloa oryzacola Vasing. The experiment in a line: Test Example 1: herbicidal activity, application before weed generation in submerged conditions (symbol A). To be noted: application herbicide amount 320 g/ha. In outline: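 Weeds are sown into submerged alluvial soil alongside transplanted 2.5-leaf rice, and the compound, as an emulsion diluted to a set rate, is applied onto the water before emergence. Rating on the 0–5 herbicidal-ratio scale follows 3 weeks of greenhouse growth at 25–30 °C.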

In the next series the test system is Chenopodium album. The series is described as follows: Test Example 5: herbicidal effect by foliage application, plastic box (symbol O). Particulars: 320 g/ha, 3 weeks after application. In outline:
(§2)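 Sowing in sterilized diluvial soil, 14 days' greenhouse growth at 25° C. to 30° C., then uniform small-sprayer foliar application of aqueous emulsion dilution; plants scored three weeks afterwards.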

The subject of series [2] is directly sowed rice plant. The series is described as follows: Test Example 3: effect on crop by foliage application, Wagner pot (symbol b). Particulars: application herbicide amount 320 g/ha. The procedure, abridged: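 Steps: fill a 1/10000-are Wagner pot with alluvial soil; add water and mix to submerge at 0.1–0.5 cm depth; sow rice plus Echinochloa crus-galli var. crus-galli, Leptochloa chinensis and Cyperus difformis; grow in a 25–30 °C greenhouse.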

In another series the test system is Lolium multiflorum Lam. The series is described as follows: Test Example 5: herbicidal effect by foliage application, plastic box (symbol K). To be noted: 320 g/ha, 3 weeks after application. The procedure, abridged: as §2
Another series concerns transplanted rice plant. The series is described as follows: Test Example 1: effect on crop, application before weed generation in submerged conditions (symbol a). To be noted: application herbicide amount 320 g/ha. In outline: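 Alluvial soil pots flooded to 4 cm water, sown with Echinochloa oryzacola, Scirpus juncoides and Monochoria vaginalis, then transplanted with 2.5 leaf stage rice seedlings; pre-emergence application. Greenhouse 25° C. to 30° C.; scored 0–5 by herbicidal ratio 3 weeks after application.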

For a further series, the system named is rice. The series is described as follows: Test Example 4: effect on crop by soil treatment (symbol b). Particulars: application herbicide amount 320 g/ha. The procedure, abridged:
as §1

Another series deals with Cyperus difformis. The series is described as follows: Test Example 3: herbicidal effect by foliage application, Wagner pot (symbol E). To be noted: application herbicide amount 320 g/ha. In outline:
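In a shallow-flooded alluvial soil system held at 25–30 °C, plants including rice grew for 14 days and were then sprayed over the foliage with emulsion diluted to a fixed herbicide amount. Visual rating followed at 3 weeks.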

A further series concerns Scirpus juncoides. The experiment in a line: Test Example 2: herbicidal activity, application during weed generation in submerged conditions (symbol B). Particulars: Table 23; application herbicide amount 320 g/ha; grade 0-5 by criteria of Test Example 1. In outline: (§3)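 Compound was applied as a water-diluted emulsion into the standing water of flooded pots (4 cm) once co-sown weeds reached one to two leaves. Greenhouse temperature was 25° C. to 30° C., soil was alluvial, and each species was rated visually after 3 weeks.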

The test system of another series is Monochoria vaginalis. The experiment in a line: Test Example 2: herbicidal activity, application during weed generation in submerged conditions (symbol C). Particulars: Table 23; application herbicide amount 320 g/ha; grade 0-5 by criteria of Test Example 1. The procedure, abridged: as §3
For a further series, the system named is Avena fatua. The series is described as follows: Test Example 5: herbicidal effect by foliage application, plastic box (symbol I). To be noted: 320 g/ha, 3 weeks after application. The procedure, abridged: as §2
The subject of another series is wheat. The experiment in a line: Test Example 4: effect on crop by soil treatment (symbol e). To be noted: application herbicide amount 320 g/ha. In outline: as §1
In a further series the test system is corn. The experiment in a line: Test Example 5: effect on crop by foliage application, plastic box (symbol c). To be noted: 320 g/ha, 3 weeks after application. The procedure, abridged: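 Foliage-application test plants come from spot sowing in sterilized diluvial soil under a soil layer of about 1.5 cm, grown at 25° C. to 30° C. in a greenhouse.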

`CON=C(CC1CC(O)=C(c2c(C)cc(C)cc2C)C1=O)C(C)C` (centres unmarked) [1-048]: the “d (soybean) effect on crop grade” value in the series on soybean is given as 0 (Herbicidal ratio of 5% or lower (almost no effect)). For the same molecule, in series [1], the “Herbicidal effect grade, A: Echinochloa oryzacola Vasing.” value is 5 (Herbicidal ratio of 90% or more (almost completely withered)). In addition, the “O: Chenopodium album, herbicidal effect grade” value (“O: Chenopodium album” for short) in the series with Chenopodium album was 3 (Herbicidal ratio of 40% or higher and lower than 70%). For the same molecule, the “effect on crop b (directly sowed rice plant), grade 0-5” value (shortened to “effect on crop b”) in [2] is on record as 5 (Herbicidal ratio of 90% or more (almost completely withered)). Also, the “K: Lolium multiflorum Lam., herbicidal effect grade” value with Lolium multiflorum Lam. is on record as 5 (Herbicidal ratio of 90% or more (almost completely withered)). Besides, the “Effect grade on crop, a: transplanted rice plant” value (“Effect grade on crop” below) with transplanted rice plant is 5 (Herbicidal ratio of 90% or more (almost completely withered)). For the same molecule, in the series on rice, the “b (directly sowed rice plant) effect on crop grade” value is on record as 5 (Herbicidal ratio of 90% or more (almost completely withered)). In addition, in the series on Cyperus difformis, the “herbicidal effect on E, grade 0-5” value was 5 (Herbicidal ratio of 90% or more (almost completely withered)). In the series on Scirpus juncoides, the “Herbicidal effect grade, B: Scirpus juncoides” value (from here on “Herbicidal effect grade, B”) is 4 (Herbicidal ratio of 70% or higher and lower than 90%). In addition, the “Herbicidal effect grade, C: Monochoria vaginalis” value (“Herbicidal effect grade, C” for short) with Monochoria vaginalis is 2 (Herbicidal ratio of 20% or higher and lower than 40%). Moreover, the “I: Avena fatua, herbicidal effect grade” value in the series with Avena fatua was 4 (Herbicidal ratio of 70% or higher and lower than 90%). Also, the “e (wheat) effect on crop grade” value with wheat was 2 (Herbicidal ratio of 20% or higher and lower than 40%). Also, in the series with corn, the “c: corn, effect on crop grade” value is 4 (Herbicidal ratio of 70% or higher and lower than 90%).
For `CON=C(C)C(c1ccc(F)cc1)C1CC(O)=C(c2c(C)cc(C)cc2C)C1=O` (centres unmarked) [1-049], the “d (soybean) effect on crop grade” value in the series with soybean is 0 (Herbicidal ratio of 5% or lower (almost no effect)). The “Herbicidal effect grade, A: Echinochloa oryzacola Vasing.” value in [1] is 0 (Herbicidal ratio of 5% or lower (almost no effect)). Moreover, the “O: Chenopodium album” value in the series with Chenopodium album was 0 (Herbicidal ratio of 5% or lower (almost no effect)). The “effect on crop b” value in [2] is recorded as 0 (Herbicidal ratio of 5% or lower (almost no effect)). In addition, the “K: Lolium multiflorum Lam., herbicidal effect grade” value with Lolium multiflorum Lam. is given as 0 (Herbicidal ratio of 5% or lower (almost no effect)). Also, the “Effect grade on crop” value in the series on transplanted rice plant was 0 (Herbicidal ratio of 5% or lower (almost no effect)). In the series with rice, the “b (directly sowed rice plant) effect on crop grade” value was 0 (Herbicidal ratio of 5% or lower (almost no effect)). Besides, the “herbicidal effect on E, grade 0-5” value in the series on Cyperus difformis is on record as 0 (Herbicidal ratio of 5% or lower (almost no effect)). Further, the “Herbicidal effect grade, B” value with Scirpus juncoides is 0 (Herbicidal ratio of 5% or lower (almost no effect)). Further, the “Herbicidal effect grade, C” value in the series on Monochoria vaginalis is given as 0 (Herbicidal ratio of 5% or lower (almost no effect)). Besides, the “I: Avena fatua, herbicidal effect grade” value in the series with Avena fatua is reported as 0 (Herbicidal ratio of 5% or lower (almost no effect)). For the same molecule, the “e (wheat) effect on crop grade” value in the series with wheat is 0 (Herbicidal ratio of 5% or lower (almost no effect)). In addition, in the series on corn, the “c: corn, effect on crop grade” value is given as 0 (Herbicidal ratio of 5% or lower (almost no effect)).
With `CON=CCC1CC(O)=C(c2c(C)cc(C)cc2C)C1=O` (centres unmarked) [1-050], the “d (soybean) effect on crop grade” value in the series with soybean is listed as 0 (Herbicidal ratio of 5% or lower (almost no effect)). In addition, the “Herbicidal effect grade, A: Echinochloa oryzacola Vasing.” value in series [1] was 4 (Herbicidal ratio of 70% or higher and lower than 90%). Moreover, in the series on Chenopodium album, the “O: Chenopodium album” value is recorded as 0 (Herbicidal ratio of 5% or lower (almost no effect)). Also, in series [2], the “effect on crop b” value is reported as 5 (Herbicidal ratio of 90% or more (almost completely withered)). Besides, in the series with Lolium multiflorum Lam., the “K: Lolium multiflorum Lam., herbicidal effect grade” value is reported as 5 (Herbicidal ratio of 90% or more (almost completely withered)). In addition, the “Effect grade on crop” value in the series on transplanted rice plant was 4 (Herbicidal ratio of 70% or higher and lower than 90%). For the same molecule, the “b (directly sowed rice plant) effect on crop grade” value with rice was 5 (Herbicidal ratio of 90% or more (almost completely withered)). The “herbicidal effect on E, grade 0-5” value with Cyperus difformis is 5 (Herbicidal ratio of 90% or more (almost completely withered)). The “Herbicidal effect grade, B” value in the series on Scirpus juncoides is recorded as 0 (Herbicidal ratio of 5% or lower (almost no effect)). The “Herbicidal effect grade, C” value in the series on Monochoria vaginalis is listed as 0 (Herbicidal ratio of 5% or lower (almost no effect)). In addition, the “I: Avena fatua, herbicidal effect grade” value in the series with Avena fatua was 3 (Herbicidal ratio of 40% or higher and lower than 70%). For the same molecule, in the series with wheat, the “e (wheat) effect on crop grade” value is reported as 0 (Herbicidal ratio of 5% or lower (almost no effect)). In addition, the “c: corn, effect on crop grade” value in the series on corn is listed as 0 (Herbicidal ratio of 5% or lower (almost no effect)).
Regarding `CON=C(C)CC1CC(OC(=O)C(C)(C)Oc2ccc(Cl)cc2)=C(c2c(C)cc(C)cc2C)C1=O` (centres unmarked) [1-051], the “d (soybean) effect on crop grade” value in the series on soybean is 3 (Herbicidal ratio of 40% or higher and lower than 70%). Moreover, the “Herbicidal effect grade, A: Echinochloa oryzacola Vasing.” value in series [1] is recorded as 5 (Herbicidal ratio of 90% or more (almost completely withered)). Besides, the “O: Chenopodium album” value with Chenopodium album was 0 (Herbicidal ratio of 5% or lower (almost no effect)). For the same molecule, the “effect on crop b” value in series [2] is on record as 5 (Herbicidal ratio of 90% or more (almost completely withered)). The “K: Lolium multiflorum Lam., herbicidal effect grade” value in the series on Lolium multiflorum Lam. is on record as 5 (Herbicidal ratio of 90% or more (almost completely withered)). Further, the “Effect grade on crop” value with transplanted rice plant is 5 (Herbicidal ratio of 90% or more (almost completely withered)). Also, in the series with rice, the “b (directly sowed rice plant) effect on crop grade” value was 5 (Herbicidal ratio of 90% or more (almost completely withered)). The “herbicidal effect on E, grade 0-5” value in the series on Cyperus difformis is listed as 5 (Herbicidal ratio of 90% or more (almost completely withered)). In addition, the “Herbicidal effect grade, B” value in the series with Scirpus juncoides is reported as 5 (Herbicidal ratio of 90% or more (almost completely withered)). Also, in the series on Monochoria vaginalis, the “Herbicidal effect grade, C” value is 3 (Herbicidal ratio of 40% or higher and lower than 70%). Besides, the “I: Avena fatua, herbicidal effect grade” value in the series on Avena fatua was 5 (Herbicidal ratio of 90% or more (almost completely withered)). The “e (wheat) effect on crop grade” value in the series on wheat was 2 (Herbicidal ratio of 20% or higher and lower than 40%). For the same molecule, in the series with corn, the “c: corn, effect on crop grade” value is on record as 5 (Herbicidal ratio of 90% or more (almost completely withered)).
Take `CC(CC1CC(O)=C(c2c(C)cc(C)cc2C)C1=O)=NOC(C)C` (centres unmarked) [1-052]: the “d (soybean) effect on crop grade” value with soybean was 0 (Herbicidal ratio of 5% or lower (almost no effect)). Besides, the “Herbicidal effect grade, A: Echinochloa oryzacola Vasing.” value in [1] is given as 5 (Herbicidal ratio of 90% or more (almost completely withered)). For the same molecule, the “O: Chenopodium album” value with Chenopodium album is 1 (Herbicidal ratio of 5% or higher and lower than 20%). Moreover, the “effect on crop b” value in [2] was 5 (Herbicidal ratio of 90% or more (almost completely withered)). Also, the “K: Lolium multiflorum Lam., herbicidal effect grade” value in the series with Lolium multiflorum Lam. is on record as 5 (Herbicidal ratio of 90% or more (almost completely withered)). For the same molecule, the “Effect grade on crop” value in the series on transplanted rice plant is given as 5 (Herbicidal ratio of 90% or more (almost completely withered)). Also, in the series with rice, the “b (directly sowed rice plant) effect on crop grade” value is given as 5 (Herbicidal ratio of 90% or more (almost completely withered)). The “herbicidal effect on E, grade 0-5” value in the series on Cyperus difformis was 5 (Herbicidal ratio of 90% or more (almost completely withered)). The “Herbicidal effect grade, B” value in the series with Scirpus juncoides was 2 (Herbicidal ratio of 20% or higher and lower than 40%). Further, in the series with Monochoria vaginalis, the “Herbicidal effect grade, C” value is given as 0 (Herbicidal ratio of 5% or lower (almost no effect)). In addition, in the series on Avena fatua, the “I: Avena fatua, herbicidal effect grade” value is on record as 5 (Herbicidal ratio of 90% or more (almost completely withered)). The “e (wheat) effect on crop grade” value in the series with wheat is listed as 5 (Herbicidal ratio of 90% or more (almost completely withered)). Besides, in the series on corn, the “c: corn, effect on crop grade” value is 4 (Herbicidal ratio of 70% or higher and lower than 90%).
